Measured values reported in paper PMC11620503 (Antimicrobial Agents and Chemotherapy, 2024).
≈ marks a conversion by molar mass, not a printed value. Like-named read-outs stand apart in the source and are kept apart here.

Tests used:
[1] = test system: E. coli CDC-435 (NDM-1), PBP3 mutations; assay: MIC, broth microdilution; type: cell-based; conditions: Escherichia coli, fixed BLI concentration (μg/mL) in parentheses in label
[2] = test system: MBL-producing isolates (Enterobacterales); assay: MIC, broth microdilution; type: cell-based; conditions: for MIC90: read-out: MIC90
[3] = test system: 207 Enterobacterales including carbapenem-resistant isolates; assay: MIC, broth microdilution; type: cell-based
[4] = test system: 55 isolates of A. baumannii; assay: MIC, broth microdilution; type: cell-based, Acinetobacter baumannii; conditions: Acinetobacter baumannii (55)
[5] = test system: 96 P. aeruginosa; assay: MIC, broth microdilution; type: cell-based, Pseudomonas aeruginosa; conditions: Pseudomonas aeruginosa (96)
[6] = test system: E. coli CDC-137 (NDM-6), PBP3 mutations; assay: MIC, broth microdilution; type: cell-based; conditions: Escherichia coli, fixed BLI concentration (μg/mL) in parentheses in label
[7] = test system: MEM-, imipenem/relebactam-, and ceftolozane/tazobactam-nonsusceptible P. aeruginosa; assay: MIC, broth microdilution; type: cell-based, Pseudomonas aeruginosa; conditions: for CLSI MIC interpretation I (intermediate) / CLSI MIC interpretation R (resistant) / CLSI MIC interpretation S (susceptible): CLSI breakpoints, marked c: breakpoints for β-lactam alone; for MIC Range / MIC50 / MIC90: fixed concentration (μg/mL) in label; for MIC50 / MIC90: Pseudomonas aeruginosa; for MIC50: read-out: MIC50; for MIC90: read-out: MIC90
[8] = test system: E. coli CDC-150 (NDM-5), PBP3 mutations; assay: MIC, broth microdilution; type: cell-based; conditions: Escherichia coli, fixed BLI concentration (μg/mL) in parentheses in label
[9] = test system: MEM-nonsusceptible Enterobacterales with metallo-carbapenemases; assay: MIC, broth microdilution; type: cell-based; conditions: MEM-nonsusceptible Enterobacterales with metallo-carbapenemases (55), cefiderocol 54 isolates
[10] = test system: Enterococcus faecium NCTC 12204; assay: MIC, reference strains of aerobic bacteria; type: cell-based; conditions: NCTC12204
[11] = test system: Pseudomonas aeruginosa ATCC 27853; assay: MIC, reference strains of aerobic bacteria; type: cell-based; conditions: ATCC27853
[12] = test system: Enterobacter hormaechei ATCC BAA-2082; assay: MIC, reference strains of aerobic bacteria; type: cell-based; conditions: ATCCBAA2082
[13] = test system: Streptococcus pseudoporcinus ATCC BAA-1381; assay: MIC, reference strains of aerobic bacteria; type: cell-based; conditions: ATCCBAA1381
[14] = test system: Streptococcus mitis GTC495 (ATCC 49456); assay: MIC, reference strains of aerobic bacteria; type: cell-based; conditions: ATCC49456
[15] = test system: Acinetobacter calcoaceticus NBRC12552 (ATCC 14987); assay: MIC, reference strains of aerobic bacteria; type: cell-based
[16] = test system: Streptococcus pneumoniae ATCC 49619; assay: MIC, reference strains of aerobic bacteria; type: cell-based; conditions: ATCC49619
[17] = test system: Enterobacter cloacae NBRC 13535 (ATCC 13047); assay: MIC, reference strains of aerobic bacteria; type: cell-based
[18] = test system: Streptococcus pyogenes ATCC 12344; assay: MIC, reference strains of aerobic bacteria; type: cell-based; conditions: ATCC12344
[19] = test system: Serratia marcescens NBRC 12648 (ATCC 14756); assay: MIC, reference strains of aerobic bacteria; type: cell-based
[20] = test system: Klebsiella pneumoniae ATCC 700603; assay: MIC, reference strains of aerobic bacteria; type: cell-based; conditions: ATCC700603
[21] = test system: Klebsiella oxytoca KUB4313; assay: MIC, reference strains of aerobic bacteria; type: cell-based
[22] = test system: Providencia rettgeri ATCC 9250; assay: MIC, reference strains of aerobic bacteria; type: cell-based; conditions: ATCC9250
[23] = test system: Proteus vulgaris ATCC 6380; assay: MIC, reference strains of aerobic bacteria; type: cell-based; conditions: ATCC6380
[24] = test system: Stenotrophomonas maltophilia KUB3619; assay: MIC, reference strains of aerobic bacteria; type: cell-based
[25] = test system: Staphylococcus aureus KUB4690/methicillin-resistant; assay: MIC, reference strains of aerobic bacteria; type: cell-based
[26] = test system: Citrobacter freundii ATCC 8090; assay: MIC, reference strains of aerobic bacteria; type: cell-based; conditions: ATCC8090
[27] = test system: Escherichia coli ATCC 25922; assay: MIC, reference strains of aerobic bacteria; type: cell-based; conditions: ATCC25922
[28] = test system: Streptococcus agalactiae ATCC 13813; assay: MIC, reference strains of aerobic bacteria; type: cell-based; conditions: ATCC13813
[29] = cited from earlier work
[30] = test system: Proteus mirabilis NBRC 3849 (NCTC 6197); assay: MIC, reference strains of aerobic bacteria; type: cell-based
[31] = Enterobacterales with metallo-carbapenemases (74), cefiderocol 73 isolates, CLSI breakpoints, marked c: breakpoints for β-lactam alone, tigecycline: FDA breakpoints
[32] = All Enterobacterales (207), cefiderocol 205 isolates, CLSI breakpoints, marked c: breakpoints for β-lactam alone, tigecycline: FDA breakpoints
[33] = CLSI breakpoints, marked c: breakpoints for β-lactam alone
[34] = fixed concentration (μg/mL) in label
[35] = fixed concentration (μg/mL) in label, read-out: MIC50
[36] = fixed concentration (μg/mL) in label, read-out: MIC90
[37] = Ceftolozane/tazobactam-nonsusceptible Pseudomonas aeruginosa (45)
[38] = Imipenem/relebactam-nonsusceptible Pseudomonas aeruginosa (43)
[39] = MEM-nonsusceptible Pseudomonas aeruginosa (76)
[40] = CLSI breakpoints, marked c: breakpoints for β-lactam alone, tigecycline: FDA breakpoints

With `CC(C)(O/N=C(\C(=O)N[C@@H]1C(=O)N2C(C(=O)[O-])=C(C[N+]3(CCNC(=O)c4ccc(O)c(O)c4Cl)CCCC3)CS[C@H]12)c1csc(N)n1)C(=O)O` [FDC, cefiderocol] the MIC [1] was 4 µg/mL (≈ 5.32 µM), the “CLSI MIC interpretation I (intermediate)” value [2, 31] was 5.5% and the “CLSI MIC interpretation R (resistant)” value [2, 31] was 1.4%. For the same molecule, the “CLSI MIC interpretation S (susceptible)” value [2, 31] was 93.2%, the MIC50 ([2]; Enterobacterales with metallo-carbapenemases (74), cefiderocol 73 isolates, fixed concentration (μg/mL) in label, read-out: MIC50) was 1 µg/mL (≈ 1.33 µM) and the MIC90 ([2]; Enterobacterales with metallo-carbapenemases (74), cefiderocol 73 isolates, fixed concentration (μg/mL) in label) was 4 µg/mL (≈ 5.32 µM). For the same molecule, the MIC90 ([2]; MBL-producing isolates, comparators) was ≤ 4 µg/mL, the “CLSI MIC interpretation I (intermediate)” value [3, 32] was 2% and the “CLSI MIC interpretation R (resistant)” value [3, 32] was 0.5%. For the same molecule, the “CLSI MIC interpretation S (susceptible)” value [3, 32] was 97.6%, the MIC50 ([3]; read-out: MIC50) was 0.5 µg/mL (≈ 0.665 µM) and the MIC90 ([3]; read-out: MIC90) was 2 µg/mL (≈ 2.66 µM). For the same molecule, the “CLSI MIC interpretation I (intermediate)” value [4, 33] was 3.6%, the “CLSI MIC interpretation R (resistant)” value [4, 33] was 1.8% and the “CLSI MIC interpretation S (susceptible)” value [4, 33] was 94.5%. The “MIC Range” value [4, 34] was ≤0.06 to 16 µg/mL, the MIC50 [4, 35] was 0.5 µg/mL (≈ 0.665 µM) and the MIC90 [4, 36] was 4 µg/mL (≈ 5.32 µM). The “CLSI MIC interpretation I (intermediate)” value [5, 33] was 0%, the “CLSI MIC interpretation R (resistant)” value [5, 33] was 0% and the “CLSI MIC interpretation S (susceptible)” value [5, 33] was 100%. The “MIC Range” value [5, 34] was ≤0.06 to 4 µg/mL, the MIC50 [5, 35] was 0.5 µg/mL (≈ 0.665 µM) and the MIC90 [5, 36] was 2 µg/mL (≈ 2.66 µM). For the same molecule, the MIC [6] was 2 µg/mL (≈ 2.66 µM), the “CLSI MIC interpretation I (intermediate)” value [7, 37] was 0% and the “CLSI MIC interpretation R (resistant)” value [7, 37] was 0%. The “CLSI MIC interpretation S (susceptible)” value [7, 37] was 100%, the “MIC Range” value [7, 37] was 0.25 to 4 µg/mL and the “CLSI MIC interpretation I (intermediate)” value [7, 38] was 0%. The “CLSI MIC interpretation R (resistant)” value [7, 38] was 0%, the “CLSI MIC interpretation S (susceptible)” value [7, 38] was 100% and the “MIC Range” value [7, 38] was 0.12 to 4 µg/mL. For the same molecule, the “CLSI MIC interpretation I (intermediate)” value [7, 39] was 0%, the “CLSI MIC interpretation R (resistant)” value [7, 39] was 0% and the “CLSI MIC interpretation S (susceptible)” value [7, 39] was 100%. For the same molecule, the “MIC Range” value [7, 39] was ≤0.06 to 4 µg/mL, the MIC50 [7, 37] was 0.5 µg/mL and the MIC90 [7, 37] was 2 µg/mL. It also gave an MIC50 [7, 38] of 0.5 µg/mL, an MIC90 [7, 38] of 2 µg/mL and an MIC50 [7, 39] of 0.5 µg/mL (≈ 0.665 µM). For the same molecule, the MIC90 [7, 39] was 2 µg/mL (≈ 2.66 µM), the MIC [8] was 4 µg/mL (≈ 5.32 µM) and the “CLSI MIC interpretation I (intermediate)” value [9, 40] was 7.4%. For the same molecule, the “CLSI MIC interpretation R (resistant)” value [9, 40] was 1.9%, the “CLSI MIC interpretation S (susceptible)” value [9, 40] was 90.7% and the MIC50 [9, 35] was 1 µg/mL (≈ 1.33 µM). The MIC90 [9, 36] was 4 µg/mL (≈ 5.32 µM).

For `N[C@@H](C(=O)N1CC(Oc2ccc3c(c2C(=O)O)OB(O)CC3)C1)c1c[nH]cn1` [KSP-1007, 7-({1-[(2R)-2-amino-2-(1H-imidazol-4-yl)acetyl]azetidin-3-yl}oxy)-2-hydroxy-3,4-dihydro-2H-1,2-benzoxaborinine-8-carboxylic acid], the MIC [10] was > 128 µg/mL, the MIC [11] was > 128 µg/mL and the MIC [12] was > 128 µg/mL. The MIC [13] was 1 µg/mL (≈ 2.59 µM), the MIC [14] was 4 µg/mL (≈ 10.4 µM) and the MIC [15] was > 128 µg/mL. For the same molecule, the MIC [16] was 2 µg/mL (≈ 5.18 µM), the MIC [17] was > 128 µg/mL and the MIC [18] was 4 µg/mL (≈ 10.4 µM). For the same molecule, the MIC [19] was > 128 µg/mL, the MIC [20] was > 128 µg/mL and the MIC [21] was 128 µg/mL (≈ 331 µM). The MIC [22] was > 128 µg/mL, the MIC [23] was > 128 µg/mL and the MIC [24] was > 128 µg/mL. For the same molecule, the MIC [25] was > 128 µg/mL, the MIC [26] was 128 µg/mL (≈ 331 µM) and the MIC [27] was 128 µg/mL (≈ 331 µM). The MIC [28] was 4 µg/mL (≈ 10.4 µM), the “human plasma protein binding rate” value [29] was “about 75%” and the MIC [30] was > 128 µg/mL.
